Laboratory results as given in patent publication US6620838B1, “Benzopyrazone compounds, compositions thereof, and methods of treatment therewith” (Signal Pharmaceuticals, Inc., priority 2002, dated 2003).

Key:
Assay type in all cases: cell-based
[1] = system: MCF-7 breast cancer cells; assay: Inhibition of MCF-7 breast cancer cell proliferation; conditions: Homo sapiens, MCF7; 17β-estradiol (0.1 nM)-dependent growth, 72 h, 3H-thymidine incorporation
Protocol: MCF-7 cells represent an excellent in vitro system to study the effects of compounds on estrogen-dependent breast cancer growth. (May, F. E. B.; Westley, B. R. J. Biol. Chem. 262:15894-15899, 1987). Benzopyranone compounds having an IC50<100 nM are particularly useful as anti-breast cancer agents in vivo.
MCF-7 breast carcinoma cells were plated in 24-well dishes at a density of 5×10^3 cells/well in phenol-red free DMEM:F-12 (1:1) medium containing 1% antibiotics, 0.05% mercaptoethanol, 0.01% ethanolamine, 0.42 ng/mL sodium selenite and 5% charcoal-stripped FCS.
Illustrative benzopyranone compounds (0.1-1000 nM in 0.2% DMSO) and 0.1 nM 17β-estradiol were added to the cultured MCF-7 breast cancer cells for 72 h. Subsequently, ^3H-labeled thymidine was added and its incorporation into cells was measured following 4 h incubation. The results are expressed as IC50 (nM) values (Table 2) which is the concentration of the benzopyranone compound necessary to inhibit the growth of MCF-7 breast cancer cells by 50% relative to controls.

[2] = system: BG-1 ovarian carcinoma cells; assay: Inhibition of BG-1 ovarian carcinoma cell proliferation; conditions: 17β-estradiol (0.1 nM)-dependent growth, 72 h, 3H-thymidine incorporation
Protocol: BG-1 cells serve as a useful in vitro model for the evaluation of the effects of antiestrogenic compounds on ovarian tumor growth (Greenberger, L. M. et. al., Clin. Cancer Res. 7:3166-3177, 2001). Benzopyranone compounds having an IC50<100 nM are particularly useful as anti-ovarian cancer agents in vivo.
BG-1 ovarian carcinoma cells were plated in 24-well dishes at a density of 5×10^3 cells/well in phenol-red free DMEM:F-12 (1:1) medium containing 1% antibiotics, 0.05% mercaptoethanol, 0.01% ethanolamine, 0.42 ng/mL sodium selenite and 5% charcoal-stripped FCS. Illustrative benzopyranone compounds (0.1-1000 nM in 0.2% DMSO) and 0.1 nM 17β-estradiol were added to the cultured BG-1 ovarian carcinoma cells and incubated for 72 h. Subsequently, ^3H-labeled thymidine was added and its incorporation into cells was measured following 4h incubation. The results are expressed as IC50 (nM) values (Table 2) which is the concentration of the benzopyranone compound necessary to inhibit the growth of BG-1 ovarian carcinoma cells by 50% relative to controls.

[3] = system: IL-6 release from human U-2 OS osteosarcoma cells stably transfected with human ER-α or ER-β; assay: Inhibition of IL-6 release; conditions: U2OS, U-2 OS cells with ER-α or ER-β (table does not say which), stimulated with 2.5 ng/ml TNFα and 1 ng/ml IL-1β, IL-6 ELISA after 24 h
Protocol: Illustrative benzopyranone compounds were tested for their ability to inhibit IL-6 release from human U-2 OS osteosarcoma cells stably transfected with human ER-α or ER-β. (Stein, B.; Yang, M. X. Mol. Cell. Biol 15: 4971-4979, 1995; Poli, V. et. al., EMBO J. 13:1189-1196, 1994). […] Benzopyranone compounds having an IC50<100 nM are particularly useful as bone resorption inhibitors in vivo. Accordingly, the compounds of this assay, illustrative benzopyranone compounds, are particularly useful for the treatment of osteoporosis, Paget's disease and metastatic bone cancer. These compounds are also useful as anti-cancer agents as elevated IL-6 levels are responsible for certain cancers such as multiple myeloma, prostate cancer, ovarian cancer, renal carcinoma and cervical carcinoma.
Human U-2 OS osteosarcoma cells (ATCC) were stably transfected with expression vectors for human full-length ER-α or ER-β, respectively, using standard molecular biology techniques. Stable subclones were generated that expressed high levels of ER-α or ER-β mRNA. The expression of ER-α and ER-β was confirmed using RNase protection analysis.
Cells were plated into 96-well plates at a density of 80,000 cells per well in phenol red-free media with charcoal-stripped fetal calf serum. Twenty four hours later, cells were either treated with vehicle (0.2% DMSO) or test compound ([…] in 0.2% DMSO). Thirty minutes later cells were stimulated with 2.5 ng/ml TNFα and 1 ng/ml IL-1β. Twenty-four hours later the media supernatant was analyzed for cytokine production (IL-6) using commercially available ELISA kits following the manufacturer's instructions. Cytokine production in the presence of vehicle (0.2% DMSO) was set to 100%. The results are expressed as IC50 (nM) values (Table 2) which is the concentration of the benzopyranone compound necessary to inhibit the production of IL-6 50% relative to the amount of IL-6 produced in the presence of vehicle.

IC50 [1] [nM] | IC50 [2] [nM] | IC50 [3] [nM] | SMILES
5.5 | 3.4 | 0.4 | O=c1oc2cc(O)ccc2c(Cc2ccc(OCCN3CCCC3)cc2)c1-c1ccc(C(F)(F)F)cc1Cl
19 | 6.6 | 0.41 | O=c1oc2cc(O)ccc2c(Cc2ccc(OCCN3CCCC3)cc2)c1-c1ccc(C(F)(F)F)cc1C(F)(F)F
4.1 | 3.2 | 0.45 | O=c1oc2cc(O)ccc2c(Cc2ccc(OCCN3CCCC3)cc2)c1-c1ccc(Cl)cc1C(F)(F)F

Continued, compound first:

SMILES | IC50 [1] [nM] | IC50 [2] [nM] | IC50 [3] [nM]
C=C/C(=C\C=C\OCCN1CCCC1)Cc1c(-c2ccc(C(F)(F)F)cc2)c(=O)oc2cc(O)ccc12 | 15.8 | 9.35 | 1.45
O=c1oc2cc(O)ccc2c(Cc2ccc(OCCN3CCCC3)cc2)c1-c1ccc(Cl)cc1Cl | 5.4 | 0.69 | 0.32
